In ChEMBL document CHEMBL6074621, “Recent advances of honokiol:pharmacological activities, manmade derivatives and structure-activity relationship” (Eur J Med Chem, 2024) one finds inhibition and IC50 data, which are given here for 3 molecules.

The species entered for one experiment is Homo sapiens. The experiment in a line: Inhibition of human pancreatic lipase at 10 uM relative to control.
The next experiment has as its system L02. Briefly: Antiproliferative activity against human LO2 cells. Type of experiment: functional, cell-based.
For a further experiment, the system named is SMMC-7721. The experiment in a line: Antiproliferative activity against human SMMC-7721 cells. The class given is functional, cell-based.
The test system of another experiment is HT-29. The experiment in a line: Antiproliferative activity against human HT-29 cells assessed as reduction in cell growth after 72 hrs by MTT assay. The class given is functional, cell-based. To be noted: HT-29, 72 h. Background: Formazan colour is commonly taken as a measure of viable cells.
In the next experiment the test system is PC-3. Briefly: Antiproliferative activity against human PC-3 cells assessed as reduction in cell growth after 72 hrs by MTT assay. Type of experiment: functional, cell-based. To be noted: PC-3, 72 h.
Another experiment has as its system HCT-116. The experiment in a line: Antiproliferative activity against human HCT-116 cells assessed as reduction in cell growth after 72 hrs by MTT assay. Type of experiment: functional, cell-based. The note with it: HCT-116, 72 h.

By inhibition is commonly meant the drop in the measured response relative to a control, in per cent. For the molecule `C/C(Cc1ccc(O)c(-c2ccc3oc(C)cc3c2)c1)=N\NC(=O)c1ccc(O)cc1`, the inhibition in the experiment filed under Homo sapiens is 81%.
The IC50 is the midpoint of a concentration-inhibition curve. With `C=CCc1cc(CN2CCC(N)CC2)c(O)c(-c2cc(CC=C)c(O)c(CN3CCC(N)CC3)c2)c1`, the results for the 50% inhibitory concentration (IC50) with L02 and in the experiment on SMMC-7721 were 18 µM and 13.1 µM, respectively.
On to `C=CCc1cc(CC=C)c(O)c(-c2cc(CC=C)c(O)c(CC=C)c2)c1`, for which the results for the IC50 in the experiment with HT-29, with PC-3 and in the experiment with HCT-116 were 11.1 µM, 19.8 µM and 9.8 µM, respectively.
